In patent US20110218191A1, “USE OF MELOXICAM FOR THE LONG TERM-TREATMENT OF KIDNEY DISORDERS IN CATS” (BOEHRINGER INGELHEIM VETMEDICA GMBH, priority 2010, published 2011):

Experiments:
[1] = system: aged cats without chronic kidney disease (no-CKD); assay: Retrospective case-controlled study: long-term meloxicam in aged cats without CKD (Group B) vs age matched untreated controls (Group D); assay type: in vivo, cat
From the text: The medical records of a feline-only practice were searched for cats with OA being treated with meloxicam during a 4 year period. A diagnosis of OA was based upon any two of the following: owner noted mobility changes and/or physical examination findings or radiographic changes. Cats included were older than 7 years and treated with meloxicam for a duration of more than 6 months. Biochemistry, urinalysis and body weight were regularly monitored. The progression of renal disease in the aged non-renal and renal group treated was compared to age matched and IRIS matched untreated controls from the same clinic. IRIS staging of CKD follows specific guidelines on the diagnosis and assessment of progression of renal disease in small animals as described below. Animals are being divided into […] categories according to the stage of their disease, see Table 1 (iris-kidney.com).
The database of a feline-only practice in suburban Melbourne was searched for cats which had been treated for chronic musculoskeletal diseases with meloxicam (Metacam® oral suspension, Boehringer Ingelheim) during a 4 year period. The diagnosis of osteoarthritis or spondylosis deformans had been made based upon any two of the following: owner noted mobility changes, physical examination findings or radiographic changes. The inclusion criteria included cats greater than 7 years old which had been treated continuously with meloxicam for a duration of more than 6 months and which had complete medical records available for review. In addition, cats were only included if serum biochemistry, urine analysis and body weight had been regularly monitored.
Young cats were excluded, as were cats with no pre-treatment renal parameter measurements. In addition cats were also excluded if the owner could not be contacted to check that the cats were still receiving daily treatment with meloxicam.
Age, breed, sex, concomitant diseases and medications as well as date treatment commenced, treatment duration and daily dose of meloxicam were recorded.
The majority of serum biochemistry determination was via external reference laboratory (Normal Range: Creatinine 0.08-0.20 mmol/L) and the remainder with an in-house IDEXX biochemistry and electrolyte machine (Normal Range: Creatinine 71-212 umol/L). In house urine specific gravity was determined with a Reichert Vet360 refractometer. Urine specific gravity was regularly compared to that measured by the same reference laboratory. Urine sediment examination and dipstick determination was carried out in-house with necessary urine cultures and urine protein. Urine creatinine determination was carried out at the same reference laboratory. […]
The median age of the renal and non-renal treated cats, median treatment duration and median maintenance dose was calculated. […]

[2] = system: aged cats with chronic kidney disease (CKD), IRIS stage 1-3; assay: Retrospective case-controlled study: long-term meloxicam in aged cats with CKD (Group A) vs age and IRIS matched untreated controls (Group C); assay type: in vivo, cat
Experimental: The diagnosis of osteoarthritis or spondylosis deformans had been made based upon any two of the following: owner noted mobility changes, physical examination findings or radiographic changes. […] In addition, cats were only included if serum biochemistry, urine analysis and body weight had been regularly monitored. […]
In house urine specific gravity was determined with a Reichert Vet360 refractometer. Urine specific gravity was regularly compared to that measured by the same reference laboratory. […]

SMILES: Cc1cnc(NC(=O)C2=C(O)c3ccccc3S(=O)(=O)N2C)s1 [meloxicam]
- progression of creatinine ([1]; meloxicam treated no-CKD group (B) vs untreated no-CKD group): no significant difference
- differences from baseline in body weight ([1]; no-CKD meloxicam group (B) vs untreated no-CKD group (D), time adjusted AUC, Wilcoxon rank-sum-test): no statistically significant differences
- progression of renal parameters ([1]; non-renal group treated with meloxicam (B) vs non-renal group not treated, median maintenance dose 0.02 mg/kg daily, median treatment duration 327 days): no differences
- median maintenance dose after dose titration to the lowest effective dose ([1]; non-renal treated group (B), oral suspension): 0.02 mg/kg daily
- differences from baseline in body weight ([2]; CKD-meloxicam group (A) vs age and IRIS matched untreated CKD group (C), time adjusted AUC, Wilcoxon rank-sum-test): no statistically significant differences
- median maintenance dose after dose titration to the lowest effective dose ([2]; renal treated group (A), oral suspension): 0.02 mg/kg daily
